Data on two molecules can be found in PMC5603603, “Linoleic and palmitoleic acid block streptokinase-mediated plasminogen activation and reduce severity of invasive group A streptococcal infection” (Scientific Reports, 2017).

Assay [1] concerns S. pyogenes strain AP1. As to the kind of experiment: Invasive humanized plasminogen murine infection model. Particulars: 50 µg s.c. (approx. 2 mg/kg) once on day of infection; for Hazard ratio (Mantel-Haenszel) treated/untreated: 1 × 10^7 cfu AP1 s.c.; for survival time in comparison with the untreated group: p = 0.0021. It counts as in vivo, Humanized Plg transgenic AlbPLG1 mice. The procedure:
All animal experiments were performed in strict accordance with the guidelines of the “European Convention for the Protection of Vertebrate Animals used for Experimental and other Scientific purposes”, with the “Australian Code of Practice for the Care and Use of Animals for Scientific Purposes” and with the “Guidelines for the Care and Use of Laboratory Animals” (National Health and Medical Research Council, Australia). All experiments conducted in Germany were approved by the ethical board of “Niedersächsisches Landesamt für Verbraucherschutz und Lebensmittelsicherheit”, Oldenburg, Germany (animal ethics no.: 33.9-42502-04-12/1009). All experiments conducted in Australia were approved by the University of Queensland Animal Ethics Committee, Brisbane, Australia (animal ethics no.: SCMB/ 553/12/NHMRC). Humanized Plg transgenic AlbPLG1 mice, heterozygous for the human Plg gene[6], were bred and used in the animal facility at the Helmholtz Centre for Infection Research or at the Australian Infectious Disease Research Centre. An overnight culture of the strain AP1 (in THY medium) was re-inoculated in fresh THY medium and grown until mid-log phase (OD 0.4–0.6). Then the bacteria were centrifuged at 4332 × g for 10 min and washed twice in PBS. They were resuspended in PBS and adjusted to an OD of 1.0. Sex- and age-matched (eight- to sixteen-week-old) groups of C57Bl6/J huPlg positive transgenic mice were infected s.c. with 1 × 10^7 cfu of S. pyogenes strain AP1. Cohorts of 15–16 mice were used (the experiment was performed four times with cohorts of 3–5 mice). The specific inoculum dose was administered in a 100 µl volume. Untreated mice received PBS subcutaneously (s.c.) as a control on the day of infection. Treated mice received either 50 µg of linoleic acid (diluted in PBS) or 50 µg of palmitoleic acid (diluted in PBS) s.c. on the day of infection. During the experiment mice were monitored for locomotion, behavior, appearance and weight. Mice were euthanized when they lost more than 20% of weight or when they reached a score of two for three of the following parameters: locomotion, appearance or behavior (authority regulations). The experiment ended after 7 days or after all mice had died.
Significance was determined by using a two-tailed, paired student’s t-test. Survival data were analyzed using GraphPad Prism7 Software. Significance was determined by using a Mantel-Cox- and a Wilcoxon-Test.

In assay [2] the test system is recombinant cluster 2a type streptokinase. The assay can be described thus: Plasminogen assay using recombinant streptokinase. Format: biochemical, group A streptococcal strain A614. To be noted: 40 µg/ml. As to the method:
An overnight culture of the strain A614 (in THY medium) was centrifuged at 5000 rpm for 10 min. The supernatant was discarded and the pellet was resuspended in TE-buffer (from DNeasy blood and tissue kit, Qiagen) containing 10% DNase-free RNase (10 µg/ml). The suspension was transferred to a vial filled with zirconium beads. Bacterial cells were lysed using a fastprep machine (MP Biomedical) twice for 30 sec at 4.0 m/sec. Then AL-buffer (from DNeasy blood and tissue kit, Qiagen) was added and beads were spun down for 30 sec. The lysate was transferred to a new reaction tube and proteinase K was added. The tube was inverted and incubated for 30 min at 56 °C. Then 100% ethanol was added and genomic DNA was isolated according to the protocol of the DNeasy blood and tissue kit (Qiagen). […] Using a gel electrophoresis, the 1500 bp product was detected, cut out and purified using a PCR clean-up, gel extraction kit (Machery-Nagel). […]
75 µl of the recombinant streptokinase (concentration 1 mg/ml) was added to the wells of a 96well plate followed by 69 µl PBS, 5 µl S-2251 (10 mM stock solution, chromogenic substrate for the detection of plasmin, Chromogenix) and 1 µl plasminogen (1 mg/ml stock solution, Biopur or Sigma). […] The absorption was measured at the beginning of the reaction and then every hour at 405 nm after 3 sec of shaking on a Tecan Sunrise ELISA Reader using Magellan software. […]

In the case of `CCCCC/C=C\C/C=C\CCCCCCCC(=O)O` [LA, linoleic acid], in assay [1], the “Hazard ratio (Mantel-Haenszel) treated/untreated” value was 0.1429 and the “survival time in comparison with the untreated group” value was “significantly extended the survival time”. For the same molecule, the “inhibition of plasminogen activation” value in assay [2] is recorded as 60–70%.

In the case of `CCCCCC/C=C\CCCCCCCC(=O)O` [PA, palmitoleic acid], in assay [1], the “Hazard ratio (Mantel-Haenszel) treated/untreated” value was 0.1429 and the “survival time in comparison with the untreated group” value is “significantly extended the survival time”. In addition, the “inhibition of plasminogen activation” value in assay [2] is listed as 60–70%.
